Our source for the IC50 values is ChEMBL document CHEMBL5727375, “Apoptosis signal-regulating kinase 1 inhibitors and methods of use thereof” (2019).

One may read the IC50 as the concentration that gives 50% inhibition.

The target of this assay is T1, Mitogen-activated protein kinase kinase kinase 5 (Homo sapiens, UniProt Q99683).
T1 sequence (Q99683 whole entry): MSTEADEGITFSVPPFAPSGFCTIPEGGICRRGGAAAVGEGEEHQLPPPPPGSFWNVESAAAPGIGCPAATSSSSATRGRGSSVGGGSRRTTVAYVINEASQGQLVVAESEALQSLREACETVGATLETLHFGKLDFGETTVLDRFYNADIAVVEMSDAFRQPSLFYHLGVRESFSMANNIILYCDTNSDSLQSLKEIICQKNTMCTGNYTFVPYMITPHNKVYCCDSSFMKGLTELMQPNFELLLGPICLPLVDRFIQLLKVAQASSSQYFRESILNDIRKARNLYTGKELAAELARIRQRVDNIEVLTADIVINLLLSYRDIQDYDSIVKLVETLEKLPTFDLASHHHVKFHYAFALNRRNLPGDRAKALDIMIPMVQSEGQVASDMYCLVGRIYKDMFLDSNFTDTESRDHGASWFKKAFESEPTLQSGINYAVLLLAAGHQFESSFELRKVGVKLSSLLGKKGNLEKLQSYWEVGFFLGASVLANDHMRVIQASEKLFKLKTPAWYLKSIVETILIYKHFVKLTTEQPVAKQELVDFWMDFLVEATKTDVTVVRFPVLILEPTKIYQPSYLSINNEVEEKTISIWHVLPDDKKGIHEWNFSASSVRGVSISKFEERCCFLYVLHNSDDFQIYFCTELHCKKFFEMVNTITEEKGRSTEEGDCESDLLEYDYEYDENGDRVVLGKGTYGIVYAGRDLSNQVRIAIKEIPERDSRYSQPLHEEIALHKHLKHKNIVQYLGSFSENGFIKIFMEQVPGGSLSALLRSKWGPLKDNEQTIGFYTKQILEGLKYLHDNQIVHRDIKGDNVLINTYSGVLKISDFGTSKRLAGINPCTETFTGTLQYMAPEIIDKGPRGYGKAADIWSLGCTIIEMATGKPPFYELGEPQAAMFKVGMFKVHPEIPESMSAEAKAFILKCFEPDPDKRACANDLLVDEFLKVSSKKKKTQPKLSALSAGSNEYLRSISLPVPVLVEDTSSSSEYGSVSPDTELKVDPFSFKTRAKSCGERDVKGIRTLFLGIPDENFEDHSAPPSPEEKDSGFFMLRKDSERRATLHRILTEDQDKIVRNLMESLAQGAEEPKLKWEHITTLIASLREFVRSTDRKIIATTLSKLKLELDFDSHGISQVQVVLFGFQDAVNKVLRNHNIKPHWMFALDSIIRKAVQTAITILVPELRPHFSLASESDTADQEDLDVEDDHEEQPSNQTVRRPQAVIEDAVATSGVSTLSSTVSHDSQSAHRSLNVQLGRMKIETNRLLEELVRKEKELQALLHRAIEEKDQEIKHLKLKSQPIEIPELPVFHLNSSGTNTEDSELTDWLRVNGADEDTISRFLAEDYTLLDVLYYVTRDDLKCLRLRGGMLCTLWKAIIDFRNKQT
Briefly: HTRF KinEASE Assay : HTRF KinEASE-STK is a generic method for measuring serine/threonine kinase activities using a time-resolved fluorescence resonance energy transfer (TR-FRET) immunoassay. The IC50 value for each compound was determined in the presence of compound (various concentration from 0 to 10 μM) and a fixed amount of ATP and peptide substrates. The test compound, 1 Um STK3 peptide substrate, and 5 Nm of ASK1 kinase are incubated with kinase reaction buffer containing 50 Mm HEPES Ph 7.5, 0.01% BRIJ-35, 10 Mm MgCl2, and 1 Mm EGTA for 30 minutes. 100 Um ATP is added to start kinase reaction and incubated for 3 hours. The STK3-antibody labeled with Eu3+-Cryptate and 125 Nm streptavidin-XL665 are mixed in a single addition with stop reagents provided by the Cisbio kit used to stop the kinase reaction. Fluorescence is detected using an Envision Multilabeled 2014 reader from PerkinElmer. The Fluorescence is measured at 615 nm (Cryptate) and 665 nm (XL665) and a ratio of 665 nm/615 nm is calculated for each well.

On to `CCOC(=O)N1Cc2cnc(C(=O)Nc3cccc(-c4nncn4C(C)C)n3)cc2C1`, for which the IC50 is 10 to 100 nM.
